Measured values reported in patent US8568814B2, “Lanthionine derivatives” (Ajinomoto Co., Inc., priority 2009, dated 2013).
Each block holds one compound with its values, some of them ahead of it.

Assays:
[1] = target: T1, human CaSR (Homo sapiens, UniProt P41180, E1011Q); assay: Evaluation (1) and (2) of CaSR agonist activity (Ca2+ fluorescence in transfected 293E cells); format: cell-based; conditions: 293E cells transfected with hCaSR/pcDNA3.1; Calcium 4/5 Assay Kit; methods (1) and (2)
T1 construct: expressed in transfected cells; host or cells: 293E cells (EBNA1-expression HEK293 cells, ATCC No. CRL-10852), transient transfection of hCaSR/pcDNA3.1
T1 sequence (P41180 20-1078 E1011Q): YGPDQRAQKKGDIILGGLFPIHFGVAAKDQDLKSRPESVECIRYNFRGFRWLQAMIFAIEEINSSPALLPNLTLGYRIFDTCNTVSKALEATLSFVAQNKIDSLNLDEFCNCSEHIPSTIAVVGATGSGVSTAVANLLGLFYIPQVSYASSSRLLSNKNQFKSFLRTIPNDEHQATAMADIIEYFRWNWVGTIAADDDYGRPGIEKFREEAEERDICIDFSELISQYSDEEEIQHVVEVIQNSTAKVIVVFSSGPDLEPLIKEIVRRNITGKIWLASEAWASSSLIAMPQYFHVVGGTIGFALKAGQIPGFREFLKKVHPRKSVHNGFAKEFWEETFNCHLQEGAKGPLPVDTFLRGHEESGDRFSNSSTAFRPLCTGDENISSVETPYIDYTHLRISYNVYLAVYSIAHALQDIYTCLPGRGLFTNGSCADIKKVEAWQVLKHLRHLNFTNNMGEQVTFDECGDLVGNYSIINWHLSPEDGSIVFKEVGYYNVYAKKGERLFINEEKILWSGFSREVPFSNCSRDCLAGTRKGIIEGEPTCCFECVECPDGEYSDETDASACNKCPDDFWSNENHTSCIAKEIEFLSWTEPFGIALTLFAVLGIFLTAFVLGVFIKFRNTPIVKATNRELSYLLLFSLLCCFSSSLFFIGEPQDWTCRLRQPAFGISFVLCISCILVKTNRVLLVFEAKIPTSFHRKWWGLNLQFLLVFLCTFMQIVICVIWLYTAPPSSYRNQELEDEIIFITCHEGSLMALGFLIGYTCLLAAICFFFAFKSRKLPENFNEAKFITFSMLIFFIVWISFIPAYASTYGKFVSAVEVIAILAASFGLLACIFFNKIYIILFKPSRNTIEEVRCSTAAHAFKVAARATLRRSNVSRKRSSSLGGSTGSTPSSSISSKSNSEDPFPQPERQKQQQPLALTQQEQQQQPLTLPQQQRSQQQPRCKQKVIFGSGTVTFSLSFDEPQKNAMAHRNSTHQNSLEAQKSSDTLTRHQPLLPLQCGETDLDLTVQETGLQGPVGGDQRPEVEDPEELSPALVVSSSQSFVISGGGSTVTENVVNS
Experimental: (§1) 293E Cells (EBNA1-expression HEK293 cells, ATCC No. CRL-10852) were cultivated in DMEM/Ham's-F12 (3.15/ml Glucose-containing Dulbecco's modified Eagle medium; available from NAKARAI TESK Company) containing 10% fetal calf serum in the presence of 200 μg/ml of G418 (available from Genetisine Company). The cultured cells were inoculated in F25 flask at a density of 3×10^6 cells/10 ml, then the content of the flask was allowed to stand for 24 hours in a CO2 incubator (5% CO2, 37° C.), and then the human CaSR-expression plasmid hCaSR/pcDNA3.1 was transfected using a transfection agent Fugene 6 (available from Roche Company). After allowing the flask to stand in a CO2 incubator for 6 to 7 hours, the cells were recovered using 10% fetal calf serum-containing DMEM/Ham's-F12 and then inoculated in each well of a poly-D-lysine coat 96-well plate (BD-Biocoat) at a density of 70,000 cells/well.
(§2) After allowing the well plate to stand in a CO2 incubator for 24 hours, the culture medium was removed from each well of the 96-well plate to which the cells had been inoculated, and a solution of Ca^2+ fluorescent indicator Calcium 4 Assay Kit (available from Molecular Devices Company) in an Assay Buffer (containing 146 mM of NaCl, 5 mM of KCl, 1 mM of MgSO4, 1 mg/ml of Glucose, 20 mM of HEPES (pH 7.2), and 0.75 to 1.25 mM of CaCl2) in an amount of 200 μl/well was added to each well, and each well was allowed to stand at 37° C. for one hour and then at room temperature for 10 minutes to thus make the cells take the indicator.
(§3) To each well of the 96-well plate, a solution of a test compound in a 0.1% BSA-containing Assay Buffer in an amount of 50 μl/well was added, and the wells were inspected for any change in the intensity of fluorescent light rays emitted therefrom for 3 minutes using FLEX Station (available from Molecular Devices Company).
(§4) Method for the Calculation of EC50
(§5) The difference (RFU (Max-Min) between the maximum and minimum intensities of fluorescent light rays observed before and after the addition of the test compound were calculated according to the automatic calculation by the FLEX Station. In this respect, the activity rate of a test compound was calculated, while the RFU (Max-Min) value observed when adding a test compound in a maximum concentration was defined to be 100% and the RFU (Max-Min) value observed when using a 0.1% BSA-containing Assay Buffer free of any added test compound was defined to be 0%, then the curve-fitting was carried out using a software Xfit for spreadsheet or a GraphPad Prism to thus determine each corresponding EC50 value as the concentration of each test compound observed at the activity rate of 50%.
as §1, with “plasmid:” for “plasmid”, “384-well” for “96-well”, “2×10^6” for “70,000”, “cells/well. […]” for “cells/well.”

[2] = test system: panelists; assay: Quantitative organoleptic evaluation of kokumi-imparting activity in dried-bonito extract; format: in vivo, human; conditions: for Intensity of Kokumi After Taste / Intensity of Kokumi Initial-Middle Taste: score scale -5 to +5, n=5
Experimental: The pH value of the samples used was adjusted to that of the control free of any test compound (i.e., the pH value of the latter +0.2). […] The scoring was carried out using the linear-scale technique, in which each corresponding score was plotted on a straight line on which the scores equal to −5, 0 and +5 had been expressly specified. […] In this respect, the term “initial-middle taste” means the taste detected from 0 to 5 seconds after placing and maintaining each sample in each panelist's mouth, and the term “after taste” means that detected thereafter.

[3] = test system: panelists; assay: Quantitative organoleptic evaluation of kokumi-imparting activity in umami/salty solution; format: in vivo, human; conditions: for Intensity of Kokumi After Taste / Intensity of Kokumi Initial-Middle Taste: score scale -5 to +5, n=5
Experimental: The scoring was carried out using the linear-scale technique, in which each corresponding score was plotted on a straight line on which the scores equal to −5, 0 and +5 had been expressly specified. In addition, persons selected as panelists in these evaluation tests were persons who had been engaged in the development of a seasoning over a cumulative period of at least a half year, and who could so judge that the difference between γ-Glu-Cys-Gly and γ-Glu-Val-Gly, each of which was added to a solution having umami and salty taste, was about 10 times (this ability was confirmed at regular intervals). In this respect, the term “initial-middle taste” means the taste detected from 0 to 5 seconds after placing and maintaining each sample in each panelist's mouth, and the term “after taste” means that detected thereafter.

[4] = test system: panelists; assay: Quantitative organoleptic evaluation of kokumi-imparting activity in cow's milk; format: in vivo, human; conditions: for Intensity of Kokumi After Taste / Intensity of Kokumi Initial-Middle Taste: score scale -5 to +5, n=5
Experimental: The quantitative organoleptic evaluation test was carried out according to the following procedures: The intensity of the kokumi-imparting activity of the test compound was determined using a mixture obtained by adding, to the commercially available cow's milk (fat content: 3.6%), […] The pH value of the samples used was adjusted to that of the control free of any test compound (i.e., the pH value of the latter +0.2). […] The scoring was carried out using the linear-scale technique, in which each corresponding score was plotted on a straight line on which the scores equal to −5, 0 and +5 had been expressly specified. […] In this respect, the term “initial-middle taste” means the taste detected during the term ranging from 0 to 5 seconds after keeping each sample in each panelist's mouth and the term “after taste” means that detected thereafter.

[5] = target: T2, human CaSR (Homo sapiens, UniProt P41180); assay: Evaluation (1) and (2) of CaSR agonist activity (Ca2+ fluorescence in transfected 293E cells); format: cell-based; conditions: ratio to γ-Glu-Cys
T2 construct: expressed in transfected cells; host or cells: 293E cells (EBNA1-expression HEK293 cells, ATCC No. CRL-10852), transient transfection of hCaSR/pcDNA3.1
T2 sequence (P41180 20-1078 E1011Q): T1 sequence (P41180 20-1078 E1011Q)
Experimental: as §1, §2, §3, §4, §5
as §1, with “plasmid:” for “plasmid”, “384-well” for “96-well”, “2×10^6” for “70,000”, “cells/well. […]” for “cells/well.”

[6] = 0.001 g/dL in dried bonito extract 20.0 g/dL with common salt 0.5 g/dL
[7] = 0.001 g/dL in water with MSG 0.05, IMP 0.05, NaCl 0.5 g/dL
[8] = 0.001 g/dL in cow's milk (fat content 3.6%)
[9] = 0.0001 g/dL in dried bonito extract 20.0 g/dL with common salt 0.5 g/dL
[10] = 0.0005 g/dL in dried bonito extract 20.0 g/dL with common salt 0.5 g/dL
[11] = 0.0001 g/dL in water with MSG 0.05, IMP 0.05, NaCl 0.5 g/dL
[12] = 0.0005 g/dL in water with MSG 0.05, IMP 0.05, NaCl 0.5 g/dL
[13] = 0.0001 g/dL in cow's milk (fat content 3.6%)
[14] = 0.0005 g/dL in cow's milk (fat content 3.6%)
[15] = 0.01 g/dL, reference standard for the scoring

Structure (SMILES): N[C@@H](CCC(=O)N[C@@H](CS)C(=O)O)C(=O)O [γ-Glu-Cys, reference compound]
- EC50 [1]: 460 nM

Structure (SMILES): CC(C)[C@H](NC(=O)CC[C@H](N)C(=O)O)C(=O)NCC(=O)O [γ-Glu-Val-Gly, reference compound]
- Intensity of Kokumi After Taste [2, 6]: 3.0
- Intensity of Kokumi Initial-Middle Taste [2, 6]: 2.5
- Comments for the Evaluation ([2]; 0.001 g/dL in dried bonito extract solution): The fish meat taste of the dried
- Intensity of Kokumi After Taste [3, 7]: 3.0
- Intensity of Kokumi Initial-Middle Taste [3, 7]: 2.5
- Comments for the Evaluation ([3]; 0.001 g/dL in water with MSG, IMP, NaCl): The kokumi is strengthened mainly
- Comments for the Evaluation ([4]; 0.001 g/dL in cow's milk): The thickness feeling of the cow's
- Intensity of Kokumi After Taste [4, 8]: 3.0
- Intensity of Kokumi Initial-Middle Taste [4, 8]: 2.5

Structure (SMILES): N[C@@H](CCC(=O)N[C@H]1CSCCC(C(=O)O)NC1=O)C(=O)O (stereo partly drawn) [Compound 21]
- EC50 [1]: 1850 nM

Structure (SMILES): N[C@@H](CCC(=O)NC1CCCC(C(=O)O)NC1=O)C(=O)O (stereo partly drawn) [Compound 35]
- EC50 [1]: 199 nM

Structure (SMILES): C[C@@H]1SC[C@H](NC(=O)CC[C@H](N)C(=O)O)C(=O)N[C@@H]1C(=O)O [Compound 29]
- EC50 [1]: 580 nM

Structure (SMILES): N[C@@H](CCC(=O)N[C@@H](CS)C(=O)NCC(=O)O)C(=O)O [γ-Glu-Cys-Gly, reference compound]
- intensity of the kokumi, after taste [2, 15]: 3.0
- intensity of the kokumi, initial-middle taste [2, 15]: 3.0
- intensity of the kokumi, after taste [3, 15]: 3.0
- intensity of the kokumi, initial-middle taste [3, 15]: 3.0
- intensity of the kokumi, after taste [4, 15]: 3.0
- intensity of the kokumi, initial-middle taste [4, 15]: 3.0

Second part, led by results:

- EC50 [1]: 20000 nM
Structure (SMILES): N[C@@H](CCC(=O)N[C@@H]1CSC[C@@H](C(=O)O)NC1=O)C(=O)O [Compound 8c]

- EC50 [1]: 1950 nM
Structure (SMILES): N[C@@H](CCC(=O)N[C@@H]1CSC[C@H](C(=O)O)NC1=O)C(=O)O [Compound 8d]

- CaSR agonist activity relative to that of γ-Glu-Cys [5]: about 9 times
- EC50 [1]: 53 nM
Structure (SMILES): N[C@@H](CCC(=O)N[C@H]1CSC[C@@H](C(=O)O)NC1=O)C(=O)O [Compound 8b]
- Intensity of Kokumi After Taste [2, 9]: 2.5
- Intensity of Kokumi Initial-Middle Taste [2, 9]: 2.3
- kokumi-imparting activity (in words) ([2]; 0.0001 to 0.0005 g/dL in dried bonito extract solution): showed its kokumi-imparting activity over the wide range of the foregoing added concentrations
- Intensity of Kokumi After Taste [2, 10]: 3.7
- Intensity of Kokumi Initial-Middle Taste [2, 10]: 3.5
- Intensity of Kokumi After Taste [3, 11]: 2.4
- Intensity of Kokumi Initial-Middle Taste [3, 11]: 2.3
- kokumi-imparting activity (in words) ([3]; 0.0001 to 0.0005 g/dL in water with MSG, IMP, NaCl): showed its kokumi-imparting activity over the wide range of the foregoing added concentrations
- Intensity of Kokumi After Taste [3, 12]: 3.5
- Intensity of Kokumi Initial-Middle Taste [3, 12]: 3.4
- Intensity of Kokumi After Taste [4, 13]: 2.3
- Intensity of Kokumi Initial-Middle Taste [4, 13]: 2.4
- kokumi-imparting activity (in words) ([4]; 0.0001 to 0.0005 g/dL in cow's milk): showed its kokumi-imparting activity over the wide range of the foregoing added concentrations
- Intensity of Kokumi After Taste [4, 14]: 3.5
- Intensity of Kokumi Initial-Middle Taste [4, 14]: 3.5

- EC50 [1]: 14300 nM
Structure (SMILES): N[C@@H](CCC(=O)N[C@H]1CSC[C@H](C(=O)O)NC1=O)C(=O)O [Compound 8a]
